Assay results from US11952362B2, “Compositions and methods for treating epigenetic disease” (The Regents of the University of California, priority 2018, dated 2024).

What was measured:
Format in all cases: cell-based
[1] = test system: NCI-1975 lung cancer cell line; experiment: Cell viability assay (CellTiter Glo), NCI-1975; conditions: 120 h; NCI-1975, 20 uM, day 5; read-out: % growth inhibition
Procedure: (§1) Pancreatic cancer cell lines (MIA PaCa-2 and CAPAN-2) were purchased from ATCC. MIA PaCa-2 were grown in DMEM and CAPAN-2 in McCoy's 5A (Gibco). Colon cancer cell lines (SW480 and HT-29) were purchased from ATCC. SW480 were grown in Leibovitz's L-15 (ATCC) and HT-29 in McCoy's 5A (Gibco). Lung cancer cell lines (NCI 460 and NCI 1975) were purchased from ATCC and grown in RPMI 1640 (Gibco). PC-3 prostate cancer cell line was purchased from ATCC and grown in F-12K (ATCC). Bladder cancer cell line 5637 was purchased from ATCC and RT-112 was purchased from Sigma-Aldrich and was grown in RPMI 1640 (Gibco). […] IL1B and TNFA mRNA levels were measured by qPCR analysis as described previously (Fang K et al. Am J Pathol, 188(3):586-99, 2018).
(§2) 1.8×10^3 cells/well were plated in quadruplicates in 96-well plate and treated with exogenously added MJK analogues 6 hours after plating. […] Cell growth was assessed 1, 3, 5 or 7 days after plating using the CellTiter Glo Luminescence Cell Viability Assay (Promega) according to manufacturer's protocol. For the experiments where the effect of combinatorial treatment of MJK-004 analogues with chemotherapy was assessed, treatment of cells with gemcitabine (10 nM) or 5-fluouracil (2000 nM) was performed one day after MJK-004 treatment and the cells were further treated with exogenously added MJK analogues 2 days later. […]

[2] = test system: PC-3 prostate cancer cell line; experiment: Cell viability assay (CellTiter Glo), PC-3; conditions: 120 h; PC-3, 20 uM, day 5; read-out: % growth inhibition
Procedure: as §1, §2

[3] = test system: MIA PaCa-2 pancreatic cancer cell line; experiment: Cell viability assay (CellTiter Glo), MIA PaCa-2; conditions: Homo sapiens, 120 h; MIA PaCa-2, 20 uM, day 5; read-out: % growth inhibition
Procedure: as §1, §2

[4] = test system: SW480 colon cancer cell line; experiment: Cell viability assay (CellTiter Glo), SW480; conditions: Homo sapiens, 120 h; SW480, 20 uM, day 5; read-out: % growth inhibition
Procedure: as §1, §2

[5] = test system: HT-29 colon cancer cell line; experiment: Cell viability assay (CellTiter Glo), HT-29; conditions: Homo sapiens, 120 h; HT-29, 20 uM, day 5; read-out: % growth inhibition
Procedure: as §1, §2

[6] = test system: CAPAN-2 pancreatic cancer cell line; experiment: Cell viability assay (CellTiter Glo), CAPAN-2; conditions: Homo sapiens, 120 h; CAPAN-2, 20 uM, day 5; read-out: % growth inhibition
Procedure: as §1, §2

[7] = test system: NCI-460 lung cancer cell line; experiment: Cell viability assay (CellTiter Glo), NCI-460; conditions: 120 h; NCI-460, 20 uM, day 5; read-out: % growth inhibition
Procedure: as §1, §2

[8] = test system: IL1B and TNFA mRNA levels in HDAC9-overexpressing NCM356 cells; experiment: IL1B and TNFA mRNA (qPCR) in HDAC9-overexpressing NCM356 colonocytes
Procedure: NCM356 colon epithelial cell lines were growth in M3:10 (INCELL, San Antonio, Tex.). A CMV-driven-HDAC9 vector was used to overexpress HDAC9 levels in NCM356 cells. IL1B and TNFA mRNA levels were measured by qPCR analysis as described previously (Fang K et al. Am J Pathol, 188(3):586-99, 2018).

Compound Cn1c(/C=C/C(=O)NO)ccc1/C=C/C(=O)c1cccc(F)c1 [MJK001, (E)-3-(5-((E)-3-(3-Fluorophenyl)-3-oxoprop-1-en-1-yl)-1-methyl-1H-pyrrol-2-yl)-N-hydro-xyacrylamide] has an inhibition at 20 µM [1] of 11.8%, an inhibition at 20 µM [2] of 26.8% and an inhibition at 20 µM [3] of 0%. For the same compound, the inhibition at 20 µM [4] was 58.4%, the inhibition at 20 µM [5] was 19.7% and the inhibition at 20 µM [6] was 42.7%. For the same compound, the inhibition at 20 µM [7] was 3.42%.

Cl.Cn1c(/C=C/C(=O)NO)ccc1/C=C/C(=O)c1cccnc1 [MJK008, (E)-N-Hydroxy-3-(1-methyl-5-((E)-3-oxo-3-(pyridin-3-yl)prop-1-en-1-yl)-1H-pyrrol-2-yl)ac-rylamide hydrochloride] was tested, and the “IL1B and TNFA mRNA levels (inflammatory response)” value [8] was “reduced substantially the inflammatory response”.
